Source: patent US9943528B2 (MAPREG, priority 2016, dated 2018)
Like-named read-outs stand apart in the source and are kept apart here.

How the values were obtained:
[1] = tested on: purified tubulin and MAP2; test: Activity: increase in optical density at 345 nm of purified tubulin and MAP2 with GTP; format: biochemical; conditions: 37° C.
Experimental: Activity is measured by the increase in optical density at 345 nm of a mixture of purified tubulin and MAP2, incubated at 37° C. in the presence of GTP.

[2] = tested on: Wistar Kyoto (WKY) rats; test: Elevated-plus maze (EPM) in WKY rats, acute treatment; format: in vivo, rat; conditions: MAP4343 10 mg/kg s.c., fluoxetine 10 mg/kg, ketamine 30 mg/kg i.p., FIG. 5D
Experimental: (§1) After a 6-day period of acclimatization, all experimental groups received daily successive subcutaneous (250 μl per rat) and intraperitoneal (1 ml/kg) injections. WI rats received injection of vehicle (sesame oil+saline) while WKY rats were randomly assigned to […] experimental groups, as follow: KWY rats receiving only vehicle (sesame oil+saline) and WKY rats treated with MAP4343 (10 mg/kg, s.c.; rats received in parallel i.p. injections of saline), fluoxetine (10 mg/kg i.p., rats received in parallel s.c. injections of sesame oil) or ketamine (30 mg/kg, i.p.; rats received in parallel s.c. injections of sesame oil) (see FIG. 3).
(§2) After, a 6-day period of acclimatization, the acute phase of treatment started for 4 days during behavioral tests were performed (FIG. 3). All animals were injected 1 h 30 before the starting of behavioral test.
We used the elevated-plus maze (EPM) as an assay of anxiety-related behavior in rodents (Walf and Frye, 2007). […] The time spent in the open versus closed arms was blindly measured by two independent experimenters from the recorded video, and the open arm-index was calculated as follow: time in the open arms (sec)/[time in open arms (sec)+time in closed arms (sec)].

[3] = tested on: Wistar (WI) rats; test: Forced swimming test (FST) in WI rats, dose-ranging; format: in vivo, rat; conditions: FIG. 6A
Experimental: as §2
Rats were submitted to the forced swimming test (FST), according the procedure initially described by (Detke et al., 1995) and slightly modified by (Bianchi et al., 2002). Briefly, rats were individually placed into a Plexiglas cylinder (40 cm height, 20 cm diameter) containing 25 cm of water at 25±1° C., under 50 lux illumination. After a pre-test session of 15 min, rats were removed, dried and returned to its housed cage. Twenty-four hours after the pre-test session, rats were still placed in the swim cylinder (under identical conditions) for the 5-min test session. The pre-test and test sessions were recorded using a video camera placed above the cylinder for subsequent behavioral analysis. The immobility time (in sec) was blindly measured by two independent experimenters from recorded videos. Rats were considered as immobile when none activity was observed other than that required to keep the rat's head above the water.

[4] = tested on: MAP2; test: Binding (affinity) by displacement of PREG-3H
[5] = tested on: Wistar Kyoto (WKY) rats; test: Open-field arena (OFA) in WKY rats, acute treatment; format: in vivo, rat; conditions: MAP4343 10 mg/kg s.c., fluoxetine 10 mg/kg i.p., ketamine 30 mg/kg i.p.
Experimental: as §1, §2
The animals were individually placed in the open field arena (OFA) (70×100×70 cm), with a central square (35×50 cm), located in a 50 lux illuminated room and videotaped during 3 min using a computerized system (VideoTrack V2.5, ViewPoint, Lyon, France).
OFA allows firstly the evaluation of total locomotor activity (LMA) thereby measuring the total distance travelled in the arena (in cm). Secondly, measurements of the activity in the center of the arena like (i) the number of entries in the center of arena and (ii) the total time spent in the center of arena (in sec) provide cues of anxiety-like behavior (Prut and Belzung, 2003). All these behavioral parameters were instantaneously measured automatically with the VideoTrack V2.5 software from the videos.

[6] = tested on: GABA (non-selective); test: CNS receptor binding assay, GABA; conditions: MAP4343 10 μM; [3H] GABA; rat cerebral cortex
Description: MAP4343 has been screened for in vitro affinity to 80 different CNS neurotransmitters receptors using various validated binding assays.

[7] = tested on: Wistar Kyoto (WKY) rats; test: Forced swimming test (FST) in WKY rats; format: in vivo, rat; conditions: FIG. 6B
Experimental: as §1, with “([…];” for “(sesame oil+saline) and WKY rats treated with MAP4343 (10 mg/kg, s.c.;”
as §2
Rats were submitted to the forced swimming test (FST), according the procedure initially described by (Detke et al., 1995) and slightly modified by (Bianchi et al., 2002). Briefly, rats were individually placed into a Plexiglas cylinder (40 cm height, 20 cm diameter) containing 25 cm of water at 25±1° C., under 50 lux illumination. […] The pre-test and test sessions were recorded using a video camera placed above the cylinder for subsequent behavioral analysis. The immobility time (in sec) was blindly measured by two independent experimenters from recorded videos. […]

[8] = tested on: adult male Sprague Dawley rats; conditions: cited from earlier work
[9] = tested on: adult male Sprague Dawley rats; conditions: U.S. Pat. No. 8,334,278, cited from earlier work
[10] = tested on: social-isolated adult male Sprague Dawley rats; conditions: cited from earlier work

In the case of `CO[C@H]1CC[C@@]2(C)C(=CC[C@H]3[C@@H]4CC[C@H](C(C)=O)[C@@]4(C)CC[C@@H]32)C1` [MAP4343, 3β-methoxy-pregna-5-ene-20-one], the Activity [1] is reported as 100% of PREG, the “open-arm (OA) index in EPM, change vs WKY receiving vehicle alone” value [2] is reported as 165% and the “immobility time in FST, change vs WI receiving vehicle alone” value ([3]; MAP4343 10 mg/kg) is reported as −27%. The “immobility time in FST, change vs WI receiving vehicle alone” value ([3]; MAP4343 15 mg/kg) was −31%, the “immobility time in FST, dose-ranging effect” value ([3]; MAP4343 1, 5, 10 and 15 mg/kg) was “dose-dependent reduction of immobility time” and the Affinity [4] was 100% of PREG. The “locomotor activity (total distance travelled in the open-field arena), change vs WKY receiving vehicle” value ([5]; 3 min, FIG. 5A) was “did not modify significantly the locomotor activity”, the “number of entries in the central square of OFA, change vs WKY receiving only vehicle” value ([5]; FIG. 5B) was “+289%” and the “time spent in the center of open-field vs WKY receiving vehicle” value ([5]; FIG. 5C) was “did not modify the low time spent in central square of arena”. The “% Inhibition of control specific binding” value [6] was 2%, the “immobility time in FST, dose-ranging effect” value ([7]; MAP4343 1, 5, 10 and 15 mg/kg) was “dose-dependent decrease of immobility time” and the “immobility time in FST, change vs WKY receiving vehicle alone” value ([7]; dose-ranging, MAP4343 15 mg/kg) was −25%. The “immobility in the forced swimming test” value ([8]; naïve adult male Sprague Dawley rats, U.S. Pat. No. 8,334,278) was “decreases immobility”, the “immobility in the forced swimming test” value ([8]; social-isolated adult male Sprague Dawley rats, Bianchi and Baulieu, 2012) was “decreased immobility” and the “memory retention in NOR” value ([9]; naïve adult male Sprague Dawley rats) was “increases memory retention”. For the same compound, the “memory deficit in the NOR test” value ([9]; social-isolated adult male Sprague Dawley rats) was “induces recovery of memory deficit”, the “anxiety in the EPM test” value ([10]; acute phase (2 days of daily injections)) was “not in the acute phase” and the “anxiety in the EPM test” value ([10]; subchronic phase (8 days of daily injections)) was “recovered increased anxiety”.
